Measurements taken from US7078499B2, “Nucleotide analogues comprising a reporter moiety and a polymerase enzyme blocking moiety” (GE Healthcare UK Limited, priority 2000, dated 2006).

Assays:
Assay type in all cases: biochemical
[1] = molecular target: T1, Pfu DNA polymerase (Pyrococcus furiosus, UniProt P61875); experiment: Thermostable DNA polymerase primer extension, Pfu; design: key: −: No extension within assay time; +/−: up to 25% of primer extended by at least one base within assay time; +: up to 50% of primer extended by at least one base within assay time; ++: up to 75% of primer extended by at least one base within assay time; +++: essentially all primer extended by at least one base within assay time; settings: DNA template, TTP replaced entirely by test compound, 45° C. for 20–40 minutes
T1 construct: purchased Stratagene Ltd
T1 sequence (P61875 1-775): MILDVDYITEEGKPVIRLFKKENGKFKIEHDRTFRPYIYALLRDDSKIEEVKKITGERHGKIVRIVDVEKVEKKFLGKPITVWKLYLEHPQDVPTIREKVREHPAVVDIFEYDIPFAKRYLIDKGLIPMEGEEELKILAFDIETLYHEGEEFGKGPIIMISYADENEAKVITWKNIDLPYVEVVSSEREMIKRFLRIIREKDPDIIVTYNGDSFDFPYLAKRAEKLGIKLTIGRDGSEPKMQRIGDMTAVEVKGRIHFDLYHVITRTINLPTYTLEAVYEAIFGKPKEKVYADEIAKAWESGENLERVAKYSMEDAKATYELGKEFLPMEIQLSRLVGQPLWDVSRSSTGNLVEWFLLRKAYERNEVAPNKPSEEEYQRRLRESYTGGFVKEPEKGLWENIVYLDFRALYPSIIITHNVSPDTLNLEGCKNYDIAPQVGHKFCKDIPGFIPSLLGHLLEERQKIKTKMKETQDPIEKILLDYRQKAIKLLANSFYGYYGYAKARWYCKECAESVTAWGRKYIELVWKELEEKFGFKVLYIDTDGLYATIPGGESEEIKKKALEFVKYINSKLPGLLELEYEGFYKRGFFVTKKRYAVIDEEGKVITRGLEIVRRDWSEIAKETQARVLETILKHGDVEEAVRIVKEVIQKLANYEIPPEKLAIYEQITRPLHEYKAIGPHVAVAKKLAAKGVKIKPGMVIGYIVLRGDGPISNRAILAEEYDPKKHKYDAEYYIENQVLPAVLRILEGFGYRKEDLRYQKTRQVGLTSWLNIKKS
Protocol: (§1) DNA polymerase assays were performed using Sequence 1 as primer and Sequence 2 as template. • Sequence 1 5′[Cy3]TAACTCATTAACAGGATC 3′ • Sequence 2 5′AT TCGCGGTATTCTGGTATGAAGCTTTTAGATCCTGTTAATGAGTTA GTA3′
(§2) The template (Sequence 2) was designed such that the base (underlined) immediately adjacent to the 3′ end of the hybridised primer is complementary to the nucleotide test compound. Nucleotide test compounds were compounds (6) (4′-C-(glycylaminomethyl)thymidine triphosphate), (8) (4′-C-(N-trifluoroacetyaminomethyl)thymidine triphosphate) and (9) (4′-C-(aminomethyl)thymidine triphosphate) as described above.
(§3) Primer extension reactions were performed using the above primers in the presence of 40 to 80 μM of nucleotide triphosphates. Positive control reactions contained all four native nucleotide triphosphates. For the other reactions the TTP was replaced with either a 2:1 ratio of […] for the terminator control, or entirely by the test compound The enzymes were used at a final concentration of 0.175 units/μl and a magnesium ion concentration of 2.5 mM in buffers supplied by the manufacturer. The primer and template concentrations were 0.5 pmol/μl and 2 pmol/μl respectively.
(§4) Extension reactions with thermophilic enzymes were performed by initially denaturing the fully assembled reactions at 70° C. for 5 min. followed by 45° C. for 20–40 minutes. The following enzymes were used: Taq DNA polymerase (Taq); Thermosequenase (TS); Thermosequenase II (TSII); Thermosequenase E (TSE), Tfl DNA polymerase (Tfl); Tth DNA polymerase (Tth), deltaTts DNA polymerase (deltaTts), deltaTts D DNA polymerase (dettaTTSD) (all from APBiotech); Pfu DNA polymerase (Pfu) (Stratagene Ltd); Vent™ DNA polymerase (Vent) (New England Biolabs).
The reactions were stopped by adding a 0.5 volume aliquot of 80% formamide containing 0.1% (w/v) bromophenol blue and 0.1% (w/v) cresol blue. […]
Gels were scanned for Cy3 fluorescence on a Molecular Dynamics Fluorimager and the data analysed using Molecular Dynamics ImageQuant 5 software. […]

[2] = tested on: deltaTts DNA polymerase; experiment: Thermostable DNA polymerase primer extension, delta Tts; design: key to result of incorporation (termination / further chain extension): T: Incorporation results in termination; E: Incorporation permits further chain extension; T/E: Predominant product is primer extended by one base, but evidence of some further extension also observed; settings: DNA template, 45° C. for 20–40 minutes; for primer extended by at least one base within assay time (grade): TTP replaced entirely by test compound
Protocol: as §1, §2, §3, §4
(§5) The reactions were stopped by adding a 0.5 volume aliquot of 80% formamide containing 0.1% (w/v) bromophenol blue and 0.1% (w/v) cresol blue. The reaction products were separated by denaturing gel electrophoresis at a constant power of 45 W on 16% polyacrylamide gels containing 50% urea.
(§6) Gels were scanned for Cy3 fluorescence on a Molecular Dynamics Fluorimager and the data analysed using Molecular Dynamics ImageQuant 5 software.
(§7) The incorporation of a test nucleotide triphosphate results in the appearance on a polyacrylamide gel of a single band corresponding to a single base extension product. If, however, the enzyme adds additional bases then further bands would be observed that corresponded to either the full-length product or positions of other complementary bases in the template.

[3] = tested on: Thermosequenase; experiment: Thermostable polymerase under reverse transcription conditions, TS I; design: key to result of incorporation (termination / further chain extension): T: Incorporation results in termination; E: Incorporation permits further chain extension; T/E: Predominant product is primer extended by one base, but evidence of some further extension also observed; settings: RNA template, 2.5 mM Manganese ions; for primer extended by at least one base within assay time (grade): Tth reaction buffer
Protocol: as §1, §2, §3, §4
(§8) Reverse transcriptase reactions were performed essentially as described above for thermophilic and mesophilic enzymes. The template for these reactions was the RNA equivalent of sequence 2. All the thermophilic enzymes were assayed in Tth reaction buffer (Cambio Ltd, Cambridge UK) containing 2.5 mM Manganese ions. The following enzymes were used: Thermosequenase (TS1); Thermosequenase II (TSII); delta Tts DNA polymerase (deltaTts); delta Tts D DNA polymerase (deltaTtsD) (all from APBiotech); Retrotherm reverse transcriptase (Retroth) (Cambio Ltd); Tth DNA polymerase (Tth) (Cambio Ltd.).
as §5, §6, §7

[4] = tested on: SAV RT; experiment: Mesophilic reverse transcriptase reaction, SAV RT; design: key to result of incorporation (termination / further chain extension): T: Incorporation results in termination; E: Incorporation permits further chain extension; T/E: Predominant product is primer extended by one base, but evidence of some further extension also observed; settings: RNA template, final enzyme concentration of 4 units/μl
Protocol: as §1, §2, §3
Extension reactions preformed with mesophilic polymerases were carried out by mixing all the components of the reaction except the enzyme and heating to 70° C. for 5 min. After the reactions had cooled to room temperature 0.175 units of the enzyme were added and the reactions heated to 37° C. for 20–40 minutes. The following enzymes were used: T7 DNA polymerase (T7); Sequenase 2™ (Seq); Klenow fragment of DNA polymerase 1 (Klen); phi-29 DNA polymerase (Phi-29); T4 DNA polymerase (T4) (all from AP Biotech) and Bst DNA polymerase (Bst) (Cambio Ltd).
as §8
Mesophilic reverse transcriptases (AMV RT; MuLV RT; SAV RT and HIV RT all from APBiotech) were assayed in their respective buffers with a final enzyme concentration of 4 units/μl.
as §5, §6, §7

4′-C-(Glycylaminomethyl)thymidine triphosphate [compound (6)]
primer extended by at least one base within assay time (grade) [1]: − | result of incorporation (termination / further chain extension) [2]: T | primer extended by at least one base within assay time (grade) [2]: + (up to 50% of primer extended by at least one base within assay time) | result of incorporation (termination / further chain extension) [3]: T/E | primer extended by at least one base within assay time (grade) [3]: + (up to 50% of primer extended by at least one base within assay time) | primer extended by at least one base within assay time (grade) [4]: + (up to 50% of primer extended by at least one base within assay time) | result of incorporation (termination / further chain extension) [4]: E?

Cc1cn([C@H]2C[C@H](O)[C@@](CNC(=O)C(F)(F)F)(COP(=O)(O)OP(=O)(O)OP(=O)(O)O)O2)c(=O)[nH]c1=O [compound (8), 4′-C-(N-trifluoroacetylaminomethyl)thymidine triphosphate]
primer extended by at least one base within assay time (grade) [1]: − | result of incorporation (termination / further chain extension) [2]: T | primer extended by at least one base within assay time (grade) [2]: + (up to 50% of primer extended by at least one base within assay time) | result of incorporation (termination / further chain extension) [3]: T/E | primer extended by at least one base within assay time (grade) [3]: + (up to 50% of primer extended by at least one base within assay time) | primer extended by at least one base within assay time (grade) [4]: ++ (up to 75% of primer extended by at least one base within assay time) | result of incorporation (termination / further chain extension) [4]: E

4′-C-(Aminomethyl)thymidine triphosphate [compound (9)]
primer extended by at least one base within assay time (grade) [1]: − | result of incorporation (termination / further chain extension) [2]: T | primer extended by at least one base within assay time (grade) [2]: +T | result of incorporation (termination / further chain extension) [3]: T/E | primer extended by at least one base within assay time (grade) [3]: + (up to 50% of primer extended by at least one base within assay time) | primer extended by at least one base within assay time (grade) [4]: ++ (up to 75% of primer extended by at least one base within assay time) | result of incorporation (termination / further chain extension) [4]: E
